Experimental data from US20230414583A1, “LYSERGIC ACID DERIVATIVES WITH MODIFIED LSD-LIKE ACTION” (Mind Medicine, Inc., priority 2022, published 2023).

Assays:
5-HT2A = settings: cited from earlier work
LSD-trained rats = settings: even at 20× of the full active dose of LSD; cited from earlier work
[1] = Chemical stability under basic and acidic conditions (HPLC MS); format: physicochemical
Description: General preparation and equipment information: NMR was performed on a Bruker NMR (^1H: 300 MHz and ^19F: 282 MHz) at ambient temperature. Reaction controls were performed by silica gel TLC (F254; UV detection) and HPLC UV & MS (Agilent 1100, UV at 210 nm and 313 nm, Waters SQD, ESI+ mode) under basic as well as acidic conditions (solvents: A: either 0.02% NH4OH in water or 0.05% TFA in water, B: acetonitrile, gradients from 5% to 95% B, reversed phase C18 HPLC column). All reactions, workups, drying steps, and storing were performed under exclusion of daylight and of electric light such as neon lighting or light bulbs containing wavelengths of the blue and/or UV spectrum. Working was performed in either light-excluding lab ware or under orange to red light (UV free LED). This helps to prevent decompositions of the compounds. Further on, reactions und some purifications can be performed under protecting gas such as Nitrogen or Argon to further protect the compounds from decompositions. Purifications were performed by using silica gel column chromatography and organic solvents such as mixtures of an alcohol (MeOH or EtOH) and dichloromethane, and in some cases, 0.1% to 1% of NH4OH 25% or 0.1% to 1% NEt3 was added. In a similar way, preparative TLC (silica gel) using the aforementioned solvents was applied as well. Working safety: a suitable personal protecting ware common to lab works and fume hoods with a movable glass window were used. Possible contaminations on e.g., gloves or surfaces can quickly be detected by having a long-wave UV lamp (e.g., 366 nm) at hands, preventing further distribution of active materials. Typically, compounds bearing an intact lysergic acid amide substructure, show a strong blueish fluorescence even in trace amounts. Quick deactivation of the potential central effects of these compounds can be performed by using, e.g., a mixture of bleach and diluted alcohol.
9,10-Didehydro-N-ethenyl-N-ethyl-6-methylergoline-8R-carboxamide (TRALA-12), 21. […]

[2] = Microsomal assays: stability in pooled human liver microsomes, LC-MS/MS; format: in vitro ADME; settings: 10 nM; for microsomal metabolism compared with LSD: incubations over 4 hours
Source text: Given its fast metabolism, it is likely not active orally but is a candidate for intravenous administration in particular as an infusion and expected to then produce short-lasting or also maintained effects that can rapidly be terminated upon stopping the infusion. […] However, it is important to note that in addition to the metabolic profile, other factors such as 5-HT2A receptor activity are important to consider when choosing promising drug candidates for therapeutic applications. In addition, in vivo experiments are necessary further assessing the clinical pharmacokinetics of these substances.
Microsomal assays: The objective of this experiment was the investigation of the microsomal stability of 10 novel lysergamides (FIGS. 13A-13J) in order to make predictions about whether any of the derivatives may be clinically faster metabolized than lysergic acid diethylamide (LSD). The test substances were incubated with human liver microsomes for 4 hours and the metabolic degradation was then measured by liquid chromatography-tandem mass spectrometry (LC-MS/MS). In brief, LSD and the derivatives (10 nM) were incubated in the presence of pooled human liver microsomes for 4 hours. The microsomal reaction mixture contained 464.5 μL phosphate-buffered saline, 25 μL nicotinamide adenine dinucleotide phosphate (NADPH) solution A (1:20 dilution, #451220, lot: 0344003; Corning Life Sciences B.V) and 5 μL Solution B (1:100 dilution, #451200, lot: 0342002; Corning Life Sciences B.V), 5 μL liver microsomes (150 donors, 20 mg/mL, #452117, lot: 38296; Corning Life Sciences B.V., Amsterdam, The Netherlands), and 0.5 μL test drugs (10 μM). Samples (50 μL) were taken 2 minutes prior to microsomal incubation (t0) and 0.5, 1, 2, 3, and 4 hours after initiation of the microsomal reaction. A total of five assays were performed per substance. The amount of the test substances (peak area) exposed to human liver microsomes for 4 hours was compared relative to a concentration of 10 nM (t0, 100% peak area). Linear regression slopes were plotted to compare the degradation of the derivatives and LSD. None of the TRALA derivatives were metabolized to LSD (data not shown).

[3] = humans; psilocin: unconjugated, average; cited from earlier work
[4] = 5R,8S epimer; cited from earlier work

For `CCN(CC)C(=O)[C@@H]1C=C2c3cccc4[nH]cc(c34)C[C@H]2NC1` [6-Nor-LSD, 9,10-Didehydro-N,N-diethylergoline-8R-carboxamide], which “binding to 5-HT2A in more recent binding assays” value (5-HT2A; Luethi et al., 2019) is on record?
The value was “high-potency binding to 5-HT2A”.

What about the “loss of 5-HT2A binding affinity on N6-demethylation of LSD” value (5-HT2A; relative to LSD (Hoffmann, 1987)) of the same molecule?
The value was 30 factor.

What about the “ability to substitute in LSD-trained rats” value (LSD-trained rats) of the same molecule?
Its value is “loss of its 5-HT2A binding affinity (factor 30) and the ability to substitute in LSD-trained rats”.

Which results are given for `C=CN(CC)C(=O)[C@@H]1C=C2c3cccc4[nH]cc(c34)C[C@H]2N(C)C1` [Compound 2l, 9,10-Didehydro-N-ethenyl-N-ethyl-6-methylergoline-8R-carboxamide]?
stability against basic or acidic HPLC MS conditions ([1]; 0.02% NH4OH in water or 0.05% TFA in water / acetonitrile): stability against these conditions; time after which the majority of substance was metabolized [2]: 30 min; microsomal metabolism compared with LSD [2]: significantly faster metabolized than LSD

Which results are given for `CCN(C=C(F)F)C(=O)[C@@H]1C=C2c3cccc4[nH]cc(c34)C[C@H]2N(C)C1` [Compound 2m, 9,10-Didehydro-N-(2,2-difluoroethenyl)-N-ethyl-6-methylergoline-8R-carboxamide]?
chemical stability, basic conditions ([1]; hydrolyzed sample stored at ambient temperature overnight): remained intact; chemical stability, acidic conditions ([1]; hydrolyzed sample with excess tartaric acid, stored for 24h): the same product distribution as after initial hydrolysis of the reaction

Which “microsomal metabolism compared with LSD” value [2] does the source give for `C=C(F)CN1C[C@H](C(=O)N(CC)CC)C=C2c3cccc4[nH]cc(c34)C[C@H]21` [Compound 12c, 9,10-Didehydro-N,N-diethyl-6-(2-fluoro-1-propen-3-yl)ergoline-8R-carboxamide] here?
Its value is “significantly faster metabolized than LSD”.

For `C#CCN(CC)C(=O)[C@@H]1C=C2c3cccc4[nH]cc(c34)C[C@H]2N(CCF)C1` [Compound 16a, 9,10-Didehydro-N-ethyl-N-propyn-3-yl-6-(2-fluoroethyl)ergoline-8R-carboxamide], which “microsomal metabolism compared with LSD” value [2] is on record?
The value was “significantly faster metabolized than LSD”.

For `C#CCN(CC)C(=O)[C@@H]1C=C2c3cccc4[nH]cc(c34)C[C@H]2N(CC(=C)F)C1` [Compound 16b, 9,10-Didehydro-N-ethyl-N-propyn-3-yl-6-(2-fluoro-1-propen-3-yl)ergoline-8R-carboxamide], which “microsomal metabolism compared with LSD” value [2] is on record?
The value was “significantly faster metabolized than LSD”.

Which plasma half-life [3] does the source give for `CCN(CC)C(=O)[C@@H]1C=C2c3cccc4[nH]cc(c34)C[C@H]2N(C)C1` [LSD, 9,10-Didehydro-N,N-diethyl-6-methylergoline-8R-carboxamide] here?
Its plasma half-life is “approximately 4 hours”.

With `CCN(CC)C(=O)[C@H]1C=C2c3cccc4[nH]cc(c34)C[C@H]2N(C)C1` [iso-LSD] as the molecule, how does the psychoactivity in humans [4] read?
The psychoactivity in humans was “inactive up to several milligrams”.
